Laboratory results taken from US11365183B2, “Eicosanoid derivatives” (MAX-DELBRUECK-CENTRUM FUER MOLEKULARE MEDIZIN, priority 2009, dated 2022).

How the values were obtained:
[1] = system: neonatal rat cardiomyocytes (NRCMs); experiment: Response of NRCMs to increased extracellular Ca2+ and ß-adrenergic stimulation; assay type: cell-based; settings: 30 nM added 5 min before
Protocol: Compound C11 was synthesized as described above (example 11). NRCMs were isolated and cultured as in Example 19. The basal Ca^2+-concentration of the medium was 1.2 mM. Increased extracellular Ca^2+-concentrations (2.2, 5.2 and 8.2 mM) were adjusted by adding appropriate amounts of a 1 M CaCl2 solution to the cultures. Isoproterenol (from Sigma-Aldrich) was used as ß-adrenoreceptor agonist and added to the cultures to give final concentrations of 0.1, 1 or 10 μM. C11 was used at a final concentration of 30 nM and added to the cultures 5 min before changing the Ca^2+-concentration or adding isoproterenol. Controls were performed in the absence of C11.

[2] = system: neonatal rat cardiomyocytes (NRCMs); experiment: Chronotropic effect on spontaneous beating rate of cultured neonatal rat cardiomyocytes (identification of agonists); assay type: cell-based; settings: 30 nM, incubation time 5 min
Excerpt: This negative chronotropic effect reflects the capacity of the analogs to interact with and to activate a G-protein coupled receptor or other primary cellular targets that reduce the contractility of cardiomyocytes under basal and stress-induced conditions.
The compounds included EPA and 17,18-EETeTr (compounds 01 and 02; purchased from Cayman Chemical) as well as all but one (compound 16) of the analogs synthesized as described in examples 1-24. The R,S— and S,R-enantiomers of 17,18-EETeTr (compounds 03 and 04) were prepared resolving the racemic mixture (compound 02) by means of chiral-phase HPLC as described previously (Barbosa-Sicard E, Markovic M, Honeck H, Christ B, Muller D N, Schunck W H. Biochem Biophys Res Commun. 2005 Apr. 22; 329(4):1275-81). Before use, the compounds to be tested were prepared as 1000-fold stock solutions in ethanol.
Isolation and cultivation of NRCMs were performed as described previously (Wallukat, G; Wollenberger, A. Biomed Biochim Acta. 1987; 78:634-639; Wallukat G, Homuth V, Fischer T, Lindschau C, Horstkamp B, Jupner A, Baur E, Nissen E, Vetter K, Neichel D, Dudenhausen J W, Haller H, Luft F C. J Clin Invest. 1999; 103: 945-952). Briefly, neonatal Wistar rats (1-2 days old) were killed in conformity to the recommendations of the Community of Health Service of the City of Berlin and the cardiomyocytes were dissociated from the minced ventricles with a 0.2% solution of crude trypsin. The isolated cells were then cultured as monolayers on the bottom (12.5 cm^2) of Falcon flasks in 2.5 ml of Halle S M 20-I medium equilibrated with humidified air. The medium contained 10% heat-inactivated FCS and 2 μmol/l fluoro-deoxyuridine (Serva, Heidelberg, Germany), the latter to prevent proliferation of non-muscle cells. The NRCMs (2.4×10^6 cells/flask) were cultured at 37° C. in an incubator. After 5 to 7 days, the NRCMs formed spontaneously beating cell clusters. […] On the day of the experiment, the culture medium was replaced by 2.0 ml fresh serum-containing medium. Two hours later, the beating rates were monitored at 37° C. using an inverted microscope equipped with a heating stage. To determine the basal rate, 6 to 8 individual clusters were selected and the number of contractions was counted for 15 sec. After that, the compound to be tested was added to the culture and the beating rate of the same clusters was monitored 5 min later again. Based on the difference between the basal and compound-induced beating rate of the individual clusters, the chronotropic effects (Δ beats/min) were calculated and are given as mean±SE values. N refers to the number of clusters monitored which originated, in general, from at least three independent NRCM cultures.
This effect was fully expressed using an EPA concentration of 3.3 μM and an incubation time of 30 min. In contrast, 17,18-EETeTr (C02) produced the same effect almost immediately and already in the low nanomolar range (EC50 of 1-2 nM, data not shown). To compare the activity of 17,18-EETeTr with that of its synthetic analogs, all these compounds were tested at a final concentration of 30 nM and using an incubation time of 5 min.

With `CCNC(=O)NCCCC/C=C\CCCCCCCCCC(=O)O` [Compound C11, 16-(3-Ethylureido)hexadec-11(Z)-enoic Acid] the melting point was 83.1 to 83.3 °C, the “beating rate of NRCMs at basal and increased extracellular Ca2+” value ([1]; 1.2 mM Ca2+ and up to 8.2 mM) was “significantly reduced” and the “response of NRCMs to increasing concentrations of isoproterenol” value ([1]; isoproterenol 0.1, 1 or 10 μM) was “reduced the response”. For the same compound, the “chronotropic effect (Δ beats/min), mean±SE” value ([2]; NRCM clusters) was −27.0±1.2 beats/min and the “agonistic / chronotropic effect on NRCMs, in words” value ([2]; compound alone) was “Agonists”.
